“Also recorded” adds a separate entry of the source. Where two headings read alike, the source gives them in different places.
Experiments:
[1] = tested on: breast cancer resistance protein (BCRP); details: not told; cited from earlier work
CYP3A = tested on: CYP3A; parameters: method as in PMID 26353895; details: cited from earlier work
[2] = Plasma pharmacokinetics, Phase I open‐label two‐group fixed‐sequence drug‐drug interaction study; details: for C min / concentration at 23.9 h / concentration at 24 h / Cmax: mean (SD); for T last / Tmax: median (range); for AUC0‐24 h LSM ratio / C min LSM ratio / Cmax LSM ratio: point estimate (90% CI); for concentration at 23.9 h / concentration at 24 h / Cmax / Tmax: human, plasma, oral; for concentration at 23.9 h / concentration at 24 h: C last; for Tmax: T max
Description: This was an open‐label, two‐group, fixed‐sequence study conducted at a single study center in Rennes, France (Biotrial). A two‐group, fixed‐sequence study design was chosen as this was deemed to be the most efficient way to evaluate the effect of simeprevir with/without odalasvir on AL‐335; and vice versa (Group 1) and the effect of odalasvir with/without simeprevir on AL‐335; and vice versa (Group 2). Thus, this study design had the potential to gather both 2‐way and 3‐way DDIs. For both groups, the study consisted of a screening period, a study period, and two follow‐up visits. The study was authorized by the French National Agency for the Safety of Medicine and Health Products (ANSM) and was approved by an Independent Ethics Committee (Comité de Protection des Personnes [CPP] Ouest VI, Brest, France; Reference CPP Ouest 6–CPP 888/MS1), and was conducted in accordance with the principles of the Declaration of Helsinki and International Conference on Harmonization. All subjects provided written informed consent to participate. Drug and molecular target nomenclature in this manuscript conforms to the British Journal of Pharmacology's Concise Guide to Pharmacology 2017/18.19
Subjects in Group 1 received simeprevir 150 mg QD on days 4‐23, odalasvir 150 mg (loading dose) on day 14, odalasvir 50 mg QD on days 15‐23, and AL‐335 800 mg QD on days 1‐3, 11‐13, and 21‐23. Subjects in Group 2 received odalasvir 150 mg (loading dose) on day 4, odalasvir 50 mg QD on days 5‐23, simeprevir 150 mg QD on days 14‐23, and AL‐335 800 mg QD on days 1‐3, 11‐13, and 21‐23. […] A minimum of 10 days was considered sufficient for both odalasvir and simeprevir to reach steady‐state.
Subjects were assigned sequentially to Group 1 then to Group 2 after confirming eligibility.
As this was an […] pharmacokinetic study, blood samples for pharmacokinetic analysis were collected predose and at 0.25, 0.5, 1, 2, 3, 4, 6, 8, 10, 12, and 24 hours postdose on days 3, 13, and 23 for determination of AL‐335, ALS‐022399, and ALS‐022227 plasma concentrations (Groups 1 and 2). For simeprevir, blood samples for determination of simeprevir plasma concentrations were taken at the same time points but on days 10, 13, 20, and 23 (Group 1) or days 20 and 23 (Group 2). Blood samples for the determination of odalasvir plasma concentrations were collected predose and at 1, 3, 4, 5, 6, 7, 8, 9, 10, 12, 16, and 24 hours postdose on days 20 and 23 (Group 1) or days 10, 13, 20, and 23 (Group 2), with two further samples also collected on the day 7 and day 28 follow‐up assessments (both groups).
Plasma concentrations of AL‐335, ALS‐022399, ALS‐022227, odalasvir, and simeprevir were determined using validated liquid chromatography‐tandem mass spectrometry methods. Dichlorvos solution was added to blood samples from AL‐335‐treated subjects to stabilize AL‐335 and its metabolites (25 μL of 5 mmol/L dichlorvos into 1 mL blood). The lower limit of quantification was 1 ng/mL, 2 ng/mL, and 5 ng/mL for AL‐335, ALS‐022399, and ALS‐022227, respectively, 1 ng/mL for odalasvir, and 2 ng/mL for simeprevir.
Pharmacokinetic analyses were performed on all subjects with available profiles who received at least one dose of study drug without any protocol deviation affecting pharmacokinetic evaluation. […] Secondary parameters were last observed plasma concentration, apparent elimination half‐life, time of the maximum observed plasma concentration (T max), and time to last measurable plasma concentration (T last).

CYP1A2 = tested on: CYP1A2; parameters: method as in PMID 26353895; details: cited from earlier work
OATP1B1/1B3 = details: cited from earlier work
[3] = Group 1 Day 13, SMV + AL‐335 versus SMV alone
[4] = Group 1 Day 20, SMV + ODV versus SMV alone
[5] = Group 1 Day 23, SMV + AL‐335 + ODV versus SMV alone
[6] = Group 1 Day 23, SMV + AL‐335 + ODV
[7] = Group 2 Day 23, SMV + AL‐335 + ODV

COc1ccc2c(O[C@@H]3C[C@H]4C(=O)N[C@]5(C(=O)NS(=O)(=O)C6CC6)C[C@H]5/C=C\CCCCN(C)C(=O)[C@@H]4C3)cc(-c3nc(C(C)C)cs3)nc2c1C [simeprevir]
BCRP substrate / inhibitor status [1]: substrate and inhibitor | CYP3A inhibition (CYP3A): mild inhibitor of intestinal (not hepatic) CYP3A | effect of AL‐335 on pharmacokinetics ([2]; AL‐335 800 mg QD coadministered): no effect; also recorded: did not alter; also recorded: no impact | C min ([2]; Group 1 Day 10, SMV alone): 833 (856) ng/mL | T last ([2]; Group 1 Day 10, SMV alone): 23.9 (23.9‐24.0) h | C min ([2]; Group 1 Day 13, SMV + AL‐335): 857 (1129) ng/mL | T last ([2]; Group 1 Day 13, SMV + AL‐335): 23.9 (23.9‐24.0) h | AUC0‐24 h LSM ratio [2, 3]: 0.93 (0.83‐1.05) | C min LSM ratio [2, 3]: 0.88 (0.76‐1.02) | Cmax LSM ratio [2, 3]: 0.89 (0.79‐1.00) | AUC0‐24 h LSM ratio [2, 4]: 1.76 (1.53‐2.01) | C min LSM ratio [2, 4]: 1.41 (1.01‐1.99) | Cmax LSM ratio [2, 4]: 1.66 (1.36‐2.01) | C min ([2]; Group 1 Day 20, SMV + ODV): 1446 (2064) ng/mL | T last ([2]; Group 1 Day 20, SMV + ODV): 23.9 (23.9‐24.0) h | AUC0‐24 h LSM ratio [2, 5]: 1.60 (1.38‐1.85) | C min LSM ratio [2, 5]: 1.82 (1.52‐2.19) | Cmax LSM ratio [2, 5]: 1.43 (1.23‐1.66) | C min [2, 6]: 1910 (2441) ng/mL | T last [2, 6]: 24.0 (24.0‐24.0) h | C min ([2]; Group 2 Day 20, SMV + ODV): 1274 (1035) ng/mL | T last ([2]; Group 2 Day 20, SMV + ODV): 23.9 (23.8‐24.1) h | C min [2, 7]: 1847 (2313) ng/mL | T last [2, 7]: 24.0 (24.0‐24.1) h | concentration at 23.9 h ([2]; 150 mg, Group 1 Day 10, SMV alone): 981 ng/mL | concentration at 23.9 h ([2]; Group 1 Day 13, SMV + AL‐335): 1020 ng/mL | concentration at 23.9 h ([2]; Group 1 Day 20, SMV + ODV): 2340 ng/mL | concentration at 24 h [2, 6]: 2390 ng/mL | concentration at 23.9 h ([2]; Group 2 Day 20, SMV + ODV): 2140 ng/mL | concentration at 24 h [2, 7]: 2590 ng/mL | Cmax ([2]; Group 1 Day 10, SMV alone): 2960 ng/mL | Cmax ([2]; Group 1 Day 13, SMV + AL‐335): 2760 ng/mL | Cmax ([2]; Group 1 Day 20, SMV + ODV): 5220 ng/mL | Cmax [2, 6]: 4740 ng/mL | Cmax ([2]; Group 2 Day 20, SMV + ODV): 4530 ng/mL | Cmax [2, 7]: 4950 ng/mL | Tmax ([2]; Group 1 Day 10, SMV alone): 6 h | Tmax ([2]; Group 1 Day 13, SMV + AL‐335): 6 h | Tmax ([2]; Group 1 Day 20, SMV + ODV): 6 h | Tmax [2, 6]: 6 h | Tmax ([2]; Group 2 Day 20, SMV + ODV): 6 h | Tmax [2, 7]: 8 h | difference in T max ([2]; simeprevir coadministered with odalasvir): No clinically relevant difference | CYP1A2 inhibition (CYP1A2): mild but not clinically relevant inhibitor | OATP1B1/3 substrate / inhibitor status (OATP1B1/1B3): clinically confirmed OATP1B1 inhibitor | OATP1B1/3 substrate / inhibitor status (OATP1B1/1B3; listed as Simeprevir): substrate and inhibitor

— PMC5927802, “Pharmacokinetics, safety, and tolerability of the 2‐ and 3‐direct‐acting antiviral combination of AL‐335, odalasvir, and simeprevir in healthy subjects” (Pharmacology Research & Perspectives, 2018)
